Test results from patent US10028956B2, “Methods of treating various cancers using an AXL/cMET inhibitor in combination with other agents” (Ignyta, Inc., priority 2013, dated 2018).
Marks after values point to notes of the source that are not given here.

Key:
[1] = tested on: CTG-0170 erlotinib-insensitive primary NSCLC human TumorGraft; assay: NSCLC TumorGraft model CTG-0170; format: in vivo, mice; settings: for % Tumor Growth Inhibition: CTG-0170, 10 days
Protocol: Methods (for the experiments shown in FIGS. 10 and 11) • Female immunocompromised nu/nu mice (Harlan) between 6-9 weeks of age were housed on irradiated papertwist-enriched ⅛″ corncob bedding (Sheperd) in individual HEPA ventilated cages (Innocage® IVC, Innovive USA) on a 12-hour light-dark cycle at 68-74° F. (20-23° C.) and 30-70% humidity. Animals were fed water ad libitum (reverse osmosis, 2 ppm Cl2) and an irradiated Test rodent diet (Teklad 2919) consisting of 19% protein, 9% fat, and 4% fiber. • Tumor Models: Champions TumorGraft models of NSCLC are owned by Champions Oncology. In this study, animals were implanted unilaterally on the right flank with tumor fragments harvested from host animals. […] Erlotinib (manufacturer: OSI Pharmaceuticals; National Drug Code: 50242-062-01; Lot #: US0002) was formulated using 100% PEG-400 as the vehicle according to manufacturer's specifications.
Efficacy measurements: Beginning Day 0, tumor dimensions were measured twice weekly by digital caliper (Fowler Ultra-Cal IV) and data including individual and mean estimated tumor volumes (Mean TV±SEM) were recorded for each group; tumor volume was calculated using the formula TV=width^2×length×0.52. At study completion, percent tumor growth inhibition (% TGI) values were calculated and reported for each treatment group (T) versus control (C) using initial (i) and final (f) tumor measurements by the formula: % TGI=1−Tf−Ti/Cf−C; single agent or combination therapies resulting in a TGI>50 at study completion are considered active in the tested model at the evaluated treatment regimen according to NCI guidelines. Individual mice reporting a tumor volume ≤50% of the Day 0 measurement for two consecutive measurements over a seven day period were considered partial responders (PR). If the PR persisted until study completion, percent tumor regression (% TR) was determined using the formula: % TR=1−Tf/Ti×100; a mean value was calculated if multiple PR mice occurred in one group. Individual mice lacking palpable tumors (<4×4 mm^2 for two consecutive measurements over a seven day period) were classified as complete responders (CR); a CR that persisted until study completion was considered a tumor-free survivor (TFS). TFS animals are excluded from efficacy calculations. Statistical differences in tumor volume were determined using a two-tailed One-Way Analysis of Variance (ANOVA) followed by the Dunett's multiple comparisons test comparing treated groups with control and combinations with standard agent alone when possible. All data collected in this study was managed electronically and stored on a redundant server system.

[2] = tested on: EBC-1 Human NSCLC xenografts; assay: Discontinuous and alternate dosing schedules in EBC-1 xenografts; format: in vivo, mice; settings: 10 mg/kg oral
Protocol: After a period of 7 days of continuous dosing, animals were then switched to either a 7 day on/7 day off 10 mg/kg qd dosing regimen, or intermittent twice weekly (q2d) or thrice weekly (q3d) oral dosing at a 10 mg/kg qd dose for a total of 21 days.

[3] = tested on: 4T1-Luc2 murine mammary carcinoma cells; assay: 4T1-Luc2 systemic dissemination; format: in vivo, mice
Protocol: The murine breast cancer cell line 4T1-luciferase tagged cell line generated by stable transfection of the firefly luciferase gene expressed from the SV40 promoter was purchased from Caliper Life Sciences. The cells were grown in DMEM medium supplemented with 10% fetal bovine serum (FBS, Cat^# SH3007003, Hyclone, Logan, Utah). D-Luciferin firefly/potassium salt (Cat. # L-8220) was purchased from Biosynth International, Inc., Itasca, Ill.). Female Balb-c mice (6-8 weeks) were purchased from Charles River laboratories. […] Two days later, the mouse body weights were measured twice a week and the mice were subjected for full body in vivo imaging thrice a week. Treatments were given for a total of 23 days, with 21 days post tumor cell seeding. Bioluminescence image analysis was performed at the end of the study using a Caliper Life Sciences (Xenogen) Spectrum in vivo imaging machine. Each cage of five mice was anesthetized using isofluorane and imaged for a series of time points from 0.5-5 minutes max. Image analysis was performed using Living Image Software (vs. 4.0, 2010) using subjective but equally sized gates or regions of interest (ROIs) overlaid on each animal image. Counts were converted to average radiance or mean photon flux; expressed as photons per second per cm2 of surface area, (p/s/cm2/sr). […]

c-Met = c-Met (Homo sapiens, UniProt P08581); assay: c-Met enzyme inhibition; format: biochemical
Sequence of c-Met (P08581 25-1390): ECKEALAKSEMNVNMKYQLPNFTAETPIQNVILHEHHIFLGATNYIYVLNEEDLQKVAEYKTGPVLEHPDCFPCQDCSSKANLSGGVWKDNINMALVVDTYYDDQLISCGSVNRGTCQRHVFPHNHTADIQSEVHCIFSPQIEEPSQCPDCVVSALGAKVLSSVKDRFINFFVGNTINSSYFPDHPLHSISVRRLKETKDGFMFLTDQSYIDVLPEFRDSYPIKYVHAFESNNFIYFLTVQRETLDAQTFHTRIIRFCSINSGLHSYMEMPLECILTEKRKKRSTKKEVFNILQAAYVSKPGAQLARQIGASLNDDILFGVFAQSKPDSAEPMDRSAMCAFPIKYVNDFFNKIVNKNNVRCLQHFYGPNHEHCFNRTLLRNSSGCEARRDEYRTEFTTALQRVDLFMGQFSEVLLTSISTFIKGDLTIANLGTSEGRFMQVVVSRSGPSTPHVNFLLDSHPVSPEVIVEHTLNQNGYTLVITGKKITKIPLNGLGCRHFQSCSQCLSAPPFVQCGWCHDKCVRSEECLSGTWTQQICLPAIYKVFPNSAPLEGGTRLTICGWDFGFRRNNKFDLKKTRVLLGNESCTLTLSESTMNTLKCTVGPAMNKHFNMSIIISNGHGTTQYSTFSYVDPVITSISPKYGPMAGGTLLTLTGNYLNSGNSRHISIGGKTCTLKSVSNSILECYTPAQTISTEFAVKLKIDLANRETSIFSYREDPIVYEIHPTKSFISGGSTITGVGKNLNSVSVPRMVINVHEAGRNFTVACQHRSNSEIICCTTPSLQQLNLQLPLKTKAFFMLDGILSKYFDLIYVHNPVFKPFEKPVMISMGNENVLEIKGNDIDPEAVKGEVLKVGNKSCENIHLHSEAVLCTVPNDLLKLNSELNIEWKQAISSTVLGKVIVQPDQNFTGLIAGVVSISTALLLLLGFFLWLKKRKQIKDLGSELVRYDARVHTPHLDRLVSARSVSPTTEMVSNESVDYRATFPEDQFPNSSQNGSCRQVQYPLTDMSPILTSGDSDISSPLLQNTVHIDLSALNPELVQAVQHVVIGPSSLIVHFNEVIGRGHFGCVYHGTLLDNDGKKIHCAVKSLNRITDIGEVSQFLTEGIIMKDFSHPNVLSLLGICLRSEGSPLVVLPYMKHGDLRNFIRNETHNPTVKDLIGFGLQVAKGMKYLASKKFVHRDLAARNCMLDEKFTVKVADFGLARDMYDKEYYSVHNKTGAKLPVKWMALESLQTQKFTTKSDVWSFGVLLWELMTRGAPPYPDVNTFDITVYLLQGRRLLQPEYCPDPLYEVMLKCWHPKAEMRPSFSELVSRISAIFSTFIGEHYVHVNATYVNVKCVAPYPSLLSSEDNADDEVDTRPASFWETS

## COc1cc2nccc(Oc3ccc(NC(=O)c4cn(C(C)C)c(=O)n(-c5ccc(F)cc5)c4=O)cc3F)c2cc1OC [CEP-40783, 3-(4-Fluorophenyl)-1-isopropyl-2,4-dioxo-1,2,3,4-tetrahydropyrimidine-5-carboxylic acid [4-(6,7-dimethoxyquinolin-4-yloxy)-3-fluorophenyl]-amide]
[1]; 10 mg/kg po/qd
  % Tumor Growth Inhibition: 104%*†
[1]; 30 mg/kg po/qd
  % Tumor Growth Inhibition: 107%*†
[1]; CTG-0170, oral 10 mg/kg and 30 mg/kg
  efficacy in erlotinib-insensitive TumorGraft: tumor regressions
[2]; every 2 days (q2d)
  partial responses: 40%
[2]; every 3 days (q3d)
  partial responses: 70%
[2]; q2d dosing group
  complete tumor regressions, % of animals: 20%
[2]; qd, 7 days on/7 days off (qd×7)
  partial responses: 40%
[2]; qd×7 dosing group
  complete tumor regressions, % of animals: 10%
[3]; 1 mg/kg po qd
  systemic 4T1 mammary tumor dissemination: significant, albeit of lesser magnitude, reduction
[3]; 10 mg/kg and 30 mg/kg po qd
  systemic 4T1 mammary tumor dissemination: highly significant reductions
c-Met
  IC50: 12 nM
